Assay results published in patent publication US20130130922A1, “ANALYSIS OF METHYLATION SITES” (Centre for Addiction and Mental Health, priority 2011, published 2013).

Tested on: Control-Sss reference system (specific and nonspecific DNA fragments)
Test: mTAG labeling, biotinylation, capture on streptavidin beads and multiplex real-time PCR of Control-Sss reference system
Conditions: 50 ng Control-Sss mixed with 300 ng sonicated human brain genomic DNA; 50 μM Ado-6-amine; 1450 nM enzyme; 37° C. 30 min

For “SssI (Q142A/N370A): His6-tagged M.SssI C5 DNA methyltransferase (CG target site) double-alanine mutant Q142A/N370A”, the “level of nonspecific probe found” value was “less than 1%” and the “yield of captured specific probe containing two SssI target sites” value was roughly 80%.
